From the NIST ThermoML archive (doi:10.1016/j.jct.2005.11.012)
± gives the expanded uncertainty stated by the source.

Columns and labels:
[1] = 101 kPa, Liquid
[2] = refractive index (Na D-line) (dimensionless); details: 101.33 kPa, Liquid
[3] = xn = mol fraction of the nth substance listed; details: 101 kPa, Liquid
[4] = refractive index (Na D-line) (dimensionless); xn = mol fraction of the nth substance listed; details: 101 kPa, Liquid

## BrC(Br)C(Br)Br [1,1,2,2-tetrabromoethane]
[1]; 293.15 K
  mass density: 2963.2 ± 3.5 kg/m3
[1]; 303.15 K
  mass density: 2939.86 ± 3.5 kg/m3
[2]; 293.15 K
  refractive index: 1.63535 ± 0.00065
[2]; 303.15 K
  refractive index: 1.62926 ± 0.00065

## BrC(Br)C(Br)Br [1,1,2,2-tetrabromoethane] + CCCCCCCCCCO
[3]; 293.15 K, x1 = 0.1023
  mass density: 968.19 ± 0.54 kg/m3
[3]; 293.15 K, x1 = 0.202
  mass density: 1114.37 ± 0.71 kg/m3
[3]; 293.15 K, x1 = 0.3012
  mass density: 1272.36 ± 0.98 kg/m3
[3]; 293.15 K, x1 = 0.4012
  mass density: 1446.62 ± 1.3 kg/m3
[3]; 293.15 K, x1 = 0.5007
  mass density: 1636.66 ± 1.7 kg/m3
[3]; 293.15 K, x1 = 0.6006
  mass density: 1847.04 ± 1.9 kg/m3
[3]; 293.15 K, x1 = 0.7011
  mass density: 2081.74 ± 2.2 kg/m3
[3]; 293.15 K, x1 = 0.8006
  mass density: 2340.68 ± 2.6 kg/m3
[3]; 293.15 K, x1 = 0.9006
  mass density: 2632.79 ± 3 kg/m3
[3]; 293.15 K, x1 = 1
  mass density: 2963.2 ± 3.5 kg/m3
[3]; 303.15 K, x1 = 0.1023
  mass density: 960.09 ± 0.54 kg/m3
[3]; 303.15 K, x1 = 0.202
  mass density: 1104.97 ± 0.7 kg/m3
[3]; 303.15 K, x1 = 0.3012
  mass density: 1261.57 ± 0.97 kg/m3
[3]; 303.15 K, x1 = 0.4012
  mass density: 1434.34 ± 1.3 kg/m3
[3]; 303.15 K, x1 = 0.5007
  mass density: 1622.78 ± 1.7 kg/m3
[3]; 303.15 K, x1 = 0.6006
  mass density: 1831.45 ± 1.9 kg/m3
[3]; 303.15 K, x1 = 0.7011
  mass density: 2064.32 ± 2.2 kg/m3
[3]; 303.15 K, x1 = 0.8006
  mass density: 2321.36 ± 2.5 kg/m3
[3]; 303.15 K, x1 = 0.9006
  mass density: 2611.47 ± 3 kg/m3
[3]; 303.15 K, x1 = 1
  mass density: 2939.86 ± 3.5 kg/m3
[4]; 293.15 K, x1 = 0.1023
  refractive index: 1.44929 ± 0.00065
[4]; 293.15 K, x1 = 0.202
  refractive index: 1.46226 ± 0.00065
[4]; 293.15 K, x1 = 0.3012
  refractive index: 1.47639 ± 0.00065
[4]; 293.15 K, x1 = 0.4012
  refractive index: 1.49207 ± 0.00065
[4]; 293.15 K, x1 = 0.5007
  refractive index: 1.50944 ± 0.00066
[4]; 293.15 K, x1 = 0.6006
  refractive index: 1.52888 ± 0.00066
[4]; 293.15 K, x1 = 0.7011
  refractive index: 1.55057 ± 0.00065
[4]; 293.15 K, x1 = 0.8006
  refractive index: 1.57518 ± 0.00065
[4]; 293.15 K, x1 = 0.9006
  refractive index: 1.60321 ± 0.00065
[4]; 293.15 K, x1 = 1
  refractive index: 1.63535 ± 0.00065
[4]; 303.15 K, x1 = 0.1023
  refractive index: 1.44494 ± 0.00065
[4]; 303.15 K, x1 = 0.202
  refractive index: 1.45758 ± 0.00065
[4]; 303.15 K, x1 = 0.3012
  refractive index: 1.47147 ± 0.00065
[4]; 303.15 K, x1 = 0.4012
  refractive index: 1.48697 ± 0.00065
[4]; 303.15 K, x1 = 0.5007
  refractive index: 1.50399 ± 0.00066
[4]; 303.15 K, x1 = 0.6006
  refractive index: 1.52315 ± 0.00066
[4]; 303.15 K, x1 = 0.7011
  refractive index: 1.54493 ± 0.00065
[4]; 303.15 K, x1 = 0.8006
  refractive index: 1.56925 ± 0.00065
[4]; 303.15 K, x1 = 0.9006
  refractive index: 1.59716 ± 0.00065
[4]; 303.15 K, x1 = 1
  refractive index: 1.62926 ± 0.00065

## BrC(Br)C(Br)Br [1,1,2,2-tetrabromoethane] + CCCCCCCCO
[3]; 293.15 K, x1 = 0.101
  mass density: 989.26 ± 0.55 kg/m3
[3]; 293.15 K, x1 = 0.2013
  mass density: 1161.15 ± 0.78 kg/m3
[3]; 293.15 K, x1 = 0.2997
  mass density: 1338.99 ± 1.1 kg/m3
[3]; 293.15 K, x1 = 0.3994
  mass density: 1529.17 ± 1.5 kg/m3
[3]; 293.15 K, x1 = 0.5002
  mass density: 1732.98 ± 1.9 kg/m3
[3]; 293.15 K, x1 = 0.6003
  mass density: 1947.95 ± 2.1 kg/m3
[3]; 293.15 K, x1 = 0.6998
  mass density: 2175.4 ± 2.4 kg/m3
[3]; 293.15 K, x1 = 0.7998
  mass density: 2419.28 ± 2.7 kg/m3
[3]; 293.15 K, x1 = 0.9011
  mass density: 2684.42 ± 3.1 kg/m3
[3]; 293.15 K, x1 = 1
  mass density: 2963.2 ± 3.5 kg/m3
[3]; 303.15 K, x1 = 0.101
  mass density: 980.93 ± 0.55 kg/m3
[3]; 303.15 K, x1 = 0.2013
  mass density: 1151.32 ± 0.77 kg/m3
[3]; 303.15 K, x1 = 0.2997
  mass density: 1327.63 ± 1.1 kg/m3
[3]; 303.15 K, x1 = 0.3994
  mass density: 1516.19 ± 1.4 kg/m3
[3]; 303.15 K, x1 = 0.5002
  mass density: 1718.29 ± 1.8 kg/m3
[3]; 303.15 K, x1 = 0.6003
  mass density: 1931.52 ± 2.1 kg/m3
[3]; 303.15 K, x1 = 0.6998
  mass density: 2157.22 ± 2.3 kg/m3
[3]; 303.15 K, x1 = 0.7998
  mass density: 2399.36 ± 2.7 kg/m3
[3]; 303.15 K, x1 = 0.9011
  mass density: 2662.77 ± 3 kg/m3
[3]; 303.15 K, x1 = 1
  mass density: 2939.86 ± 3.5 kg/m3
[4]; 293.15 K, x1 = 0.101
  refractive index: 1.44433 ± 0.00065
[4]; 293.15 K, x1 = 0.2013
  refractive index: 1.45995 ± 0.00065
[4]; 293.15 K, x1 = 0.2997
  refractive index: 1.47641 ± 0.00065
[4]; 293.15 K, x1 = 0.3994
  refractive index: 1.49411 ± 0.00066
[4]; 293.15 K, x1 = 0.5002
  refractive index: 1.51358 ± 0.00066
[4]; 293.15 K, x1 = 0.6003
  refractive index: 1.53421 ± 0.00066
[4]; 293.15 K, x1 = 0.6998
  refractive index: 1.55634 ± 0.00066
[4]; 293.15 K, x1 = 0.7998
  refractive index: 1.58047 ± 0.00065
[4]; 293.15 K, x1 = 0.9011
  refractive index: 1.60696 ± 0.00065
[4]; 293.15 K, x1 = 1
  refractive index: 1.63535 ± 0.00065
[4]; 303.15 K, x1 = 0.101
  refractive index: 1.44015 ± 0.00065
[4]; 303.15 K, x1 = 0.2013
  refractive index: 1.45566 ± 0.00065
[4]; 303.15 K, x1 = 0.2997
  refractive index: 1.4717 ± 0.00065
[4]; 303.15 K, x1 = 0.3994
  refractive index: 1.48929 ± 0.00066
[4]; 303.15 K, x1 = 0.5002
  refractive index: 1.50826 ± 0.00066
[4]; 303.15 K, x1 = 0.6003
  refractive index: 1.52869 ± 0.00066
[4]; 303.15 K, x1 = 0.6998
  refractive index: 1.55075 ± 0.00065
[4]; 303.15 K, x1 = 0.7998
  refractive index: 1.57464 ± 0.00065
[4]; 303.15 K, x1 = 0.9011
  refractive index: 1.60101 ± 0.00065
[4]; 303.15 K, x1 = 1
  refractive index: 1.62926 ± 0.00065

## BrC(Br)C(Br)Br [1,1,2,2-tetrabromoethane] + CCCCCCCO
[3]; 293.15 K, x1 = 0.099
  mass density: 1001.11 ± 0.55 kg/m3
[3]; 293.15 K, x1 = 0.1999
  mass density: 1189.38 ± 0.83 kg/m3
[3]; 293.15 K, x1 = 0.3001
  mass density: 1383.2 ± 1.2 kg/m3
[3]; 293.15 K, x1 = 0.3995
  mass density: 1582.25 ± 1.5 kg/m3
[3]; 293.15 K, x1 = 0.5006
  mass density: 1792.24 ± 1.9 kg/m3
[3]; 293.15 K, x1 = 0.5987
  mass density: 2003.6 ± 2.2 kg/m3
[3]; 293.15 K, x1 = 0.6993
  mass density: 2229.07 ± 2.4 kg/m3
[3]; 293.15 K, x1 = 0.799
  mass density: 2461.79 ± 2.8 kg/m3
[3]; 293.15 K, x1 = 0.8992
  mass density: 2706 ± 3.1 kg/m3
[3]; 293.15 K, x1 = 1
  mass density: 2963.2 ± 3.5 kg/m3
[3]; 303.15 K, x1 = 0.099
  mass density: 992.57 ± 0.55 kg/m3
[3]; 303.15 K, x1 = 0.1999
  mass density: 1179.18 ± 0.81 kg/m3
[3]; 303.15 K, x1 = 0.3001
  mass density: 1371.29 ± 1.1 kg/m3
[3]; 303.15 K, x1 = 0.3995
  mass density: 1568.62 ± 1.5 kg/m3
[3]; 303.15 K, x1 = 0.5006
  mass density: 1776.88 ± 1.9 kg/m3
[3]; 303.15 K, x1 = 0.5987
  mass density: 1986.59 ± 2.1 kg/m3
[3]; 303.15 K, x1 = 0.6993
  mass density: 2210.42 ± 2.4 kg/m3
[3]; 303.15 K, x1 = 0.799
  mass density: 2441.56 ± 2.7 kg/m3
[3]; 303.15 K, x1 = 0.8992
  mass density: 2684.21 ± 3.1 kg/m3
[3]; 303.15 K, x1 = 1
  mass density: 2939.86 ± 3.5 kg/m3
[4]; 293.15 K, x1 = 0.099
  refractive index: 1.44056 ± 0.00065
[4]; 293.15 K, x1 = 0.1999
  refractive index: 1.45821 ± 0.00065
[4]; 293.15 K, x1 = 0.3001
  refractive index: 1.47658 ± 0.00065
[4]; 293.15 K, x1 = 0.3995
  refractive index: 1.49566 ± 0.00066
[4]; 293.15 K, x1 = 0.5006
  refractive index: 1.51595 ± 0.00066
[4]; 293.15 K, x1 = 0.5987
  refractive index: 1.5368 ± 0.00066
[4]; 293.15 K, x1 = 0.6993
  refractive index: 1.55935 ± 0.00065
[4]; 293.15 K, x1 = 0.799
  refractive index: 1.58311 ± 0.00065
[4]; 293.15 K, x1 = 0.8992
  refractive index: 1.60832 ± 0.00065
[4]; 293.15 K, x1 = 1
  refractive index: 1.63535 ± 0.00065
[4]; 303.15 K, x1 = 0.099
  refractive index: 1.43619 ± 0.00065
[4]; 303.15 K, x1 = 0.1999
  refractive index: 1.45352 ± 0.00065
[4]; 303.15 K, x1 = 0.3001
  refractive index: 1.47156 ± 0.00065
[4]; 303.15 K, x1 = 0.3995
  refractive index: 1.49038 ± 0.00066
[4]; 303.15 K, x1 = 0.5006
  refractive index: 1.51053 ± 0.00066
[4]; 303.15 K, x1 = 0.5987
  refractive index: 1.53124 ± 0.00066
[4]; 303.15 K, x1 = 0.6993
  refractive index: 1.55368 ± 0.00065
[4]; 303.15 K, x1 = 0.799
  refractive index: 1.57727 ± 0.00065
[4]; 303.15 K, x1 = 0.8992
  refractive index: 1.60236 ± 0.00065
[4]; 303.15 K, x1 = 1
  refractive index: 1.62926 ± 0.00065
